Like-named read-outs stand apart in the source and are kept apart here.
How the values were obtained:
KRAS G12D [1] = target: T1, KRAS G12D (Homo sapiens, UniProt P01116, G12D); experiment: biochemical
KRAS G12D [2] = target: T1, KRAS G12D; experiment: biochemical; remark: listed apart in the source

T1 sequence (P01116 1-188 isoform P01116-2 G12D): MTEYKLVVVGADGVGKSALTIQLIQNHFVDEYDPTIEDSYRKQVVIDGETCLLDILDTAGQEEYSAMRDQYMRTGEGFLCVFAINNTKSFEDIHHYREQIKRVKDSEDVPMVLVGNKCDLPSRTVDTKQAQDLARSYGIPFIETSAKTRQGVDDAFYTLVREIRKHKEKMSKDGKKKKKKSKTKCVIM

IC50 (KRAS G12D [1]) [µM]	IC50 (KRAS G12D [2]) [µM]	Compound
0.002		C#Cc1c(F)ccc2cc(O)cc(-c3ncc4c(N5CCCC(C#N)C5)nc(OC[C@@]56CCCN5C[C@H](F)C6)nc4c3F)c12 (single isomer, unassigned) [Example 1-23]
> 100	19.1	C#Cc1c(F)ccc2cc(O)cc(-c3ncc4c(N5CCCC(C#N)C5)nc(OCC5(CN6CCC(F)CC6)CC5)nc4c3F)c12 (single isomer, unassigned) [Example 1-44, 1-[7-(8-ethynyl-7-fluoro-3-hydroxynaphthalen-1-yl)-8-fluoro-2-({1-[(4-fluoropiperidin-1-yl)methyl]cyclopropyl}methoxy)pyrido [4,3-d]pyrimidin-4-yl]piperidine-3-carbonitrile]
≥ 100	12.8	C#Cc1c(F)ccc2cc(O)cc(-c3ncc4c(N5CCCC(CO)C5)nc(OC[C@@]56CCCN5C[C@H](F)C6)nc4c3F)c12 (single isomer, unassigned) [Example 1-63]
0.002	0.002	C#Cc1c(F)ccc2cc(O)cc(-c3ncc4c(N5CCOCC(CC#N)C5)nc(OC[C@]56CCC[C@H]5N(C)CCC6)nc4c3F)c12 (single isomer, unassigned) [Example 1-130]
0.56		C#Cc1c(F)ccc2cc(O)cc(-c3ncc4c(N5CCOCCC5C)nc(OC[C@]56CCC[C@H]5N(C)CCC6)nc4c3F)c12 (single isomer, unassigned) [Example 1-142]
0.68		C#Cc1c(F)ccc2cc(O)cc(-c3ccc4c(N5CCCC(C#N)C5)nc(OC[C@@]56CCCN5C[C@H](F)C6)nc4c3F)c12 (single isomer, unassigned) [Example 2-41]
1	< 0.002	C#Cc1c(F)ccc2cc(O)cc(-c3ncc4c(N5C[C@@H](C)O[C@@H](C)C5)nc(OC[C@]56CCC[C@H]5N(C)CCC6)nc4c3F)c12 [Example 1-12, 4-(2-{[(4aS,7aR)-1-methyl-octahydro-1H-cyclopenta[b]pyridin-4a-yl]methoxy}-4-[(2R,6S)-2,6-dimethylmorpholin-4-yl]-8-fluoropyrido[4,3-d]pyrimidin-7-yl)-5-ethynyl-6-fluoronaphthalen-2-ol]
0.19		C#Cc1c(F)ccc2cc(O)cc(-c3ncc4c(N5CCOCCC5C)nc(OC[C@]56CCC[C@H]5N(C)CCC6)nc4c3F)c12 (stereo partly drawn) [Example 1-93, 4-(2-{[(4aS,7aR)-1-methyl-octahydro-1H-cyclopenta [b]pyridin-4a-yl]methoxy}-8-fluoro-4-(5-methyl-1,4-oxazepan-4-yl)pyrido[4,3-d]pyrimidin-7-yl)-5-ethynyl-6-fluoronaphthalen-2-ol]
0.01	0.01	C#Cc1c(F)ccc2cc(O)cc(-c3ncc4c(N5CCCOCC5)nc(OC[C@@]56C[C@@H](F)CN5CC5(CC5)C6)nc4c3F)c12 [Example 1-106, 4-(2-{[(6′R,7′aR)-6′-fluoro-hexahydrospiro [cyclopropane-1,2′-pyrrolizine]-7′a-yl]methoxy}-8-fluoro-4-(1,4-oxazepan-4-yl)pyrido[4,3-d]pyrimidin-7-yl)-5-ethynyl-6-fluoronaphthalen-2-ol]
	0.006	C#Cc1c(F)ccc2cc(O)cc(-c3nc(OC)c4c(N5CCC[C@](O)(CF)C5)nc(OC[C@]56CCC[C@H]5N(C)CCC6)nc4c3F)c12 [Example 9-26, (R)-1-(7-(8-ethynyl-7-fluoro-3-hydroxynaphthalen-1-yl)-8-fluoro-5-methoxy-2-(((4aS,7aR)-1-methyloctahydro-4aH-cyclopenta[b]pyridin-4a-yl)methoxy)pyrido[4,3-d]pyrimidin-4-yl)-3-(fluoromethyl)piperidin-3-ol]
	0.006	C#Cc1c(F)ccc2cc(O)cc(-c3nc(OC)c4c(N5CCOC6CC65)nc(OC[C@@]56CCCN5C[C@H](F)C6)nc4c3F)c12 (stereo partly drawn) [Example 9-40, 4-(4-(2-oxa-5-azabicyclo[4.1.0]heptan-5-yl)-8-fluoro-2-(((2R,7aS)-2-fluorotetrahydro-1H-pyrrolizin-7a(5H)-yl)methoxy)-5-methoxypyrido[4,3-d]pyrimidin-7-yl)-5-ethynyl-6-fluoronaphthalen-2-ol]

From patent US20240199584A1, “KRAS INHIBITORS” (Bristol-Myers Squibb Company, priority 2022, published 2024)
